Measurements published in ChEMBL document CHEMBL4507283, “Data for DCP probe BI-1935” (2021).

Experiments:
[1] = biological target: Adrenergic receptor alpha-1 (Rattus norvegicus) (UniProt P15823+P23944+P43140); experiment: ALPHA1/R Eurofins-Panlabs selectivity data (BI); type: protein assay; conditions: Compound concentration 10.0 uM
[2] = biological target: Nitric oxide synthase 3 (Bos taurus) (UniProt P29473); experiment: ENOS_MDS Eurofins-Panlabs selectivity data (BI); conditions: Compound concentration 10.0 uM
[3] = biological target: Opioid receptor (Rattus norvegicus) (UniProt P33533+P34975+P33535); experiment: OPIAT/NS Eurofins-Panlabs selectivity data (BI); type: protein assay; conditions: Compound concentration 10.0 uM
[4] = biological target: Renin (Homo sapiens) (UniProt P00797); experiment: RENIN (HU) Eurofins-Panlabs selectivity data (BI); conditions: Compound concentration 10.0 uM
Renin (Homo sapiens), sequence (P00797 whole entry): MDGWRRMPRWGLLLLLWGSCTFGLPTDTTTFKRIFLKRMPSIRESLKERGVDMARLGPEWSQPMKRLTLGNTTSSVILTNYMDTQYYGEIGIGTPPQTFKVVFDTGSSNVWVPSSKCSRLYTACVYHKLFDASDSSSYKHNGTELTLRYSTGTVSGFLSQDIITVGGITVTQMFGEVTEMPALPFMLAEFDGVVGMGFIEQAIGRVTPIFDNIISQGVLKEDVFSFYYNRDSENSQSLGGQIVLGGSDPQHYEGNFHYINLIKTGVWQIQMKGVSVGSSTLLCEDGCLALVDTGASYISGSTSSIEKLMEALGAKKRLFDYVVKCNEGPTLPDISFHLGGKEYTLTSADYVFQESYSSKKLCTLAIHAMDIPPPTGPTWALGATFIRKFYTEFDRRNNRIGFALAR

[5] = system: Tyrosine-protein kinase ABL1 (Homo sapiens), P00519 [M351T]; conditions: Compound concentration 1000.0 nM
[6] = biological target: Peripheral plasma membrane protein CASK (Homo sapiens) (UniProt O14936); conditions: Compound concentration 1000.0 nM
[7] = biological target: Casein kinase I isoform gamma-2 (Homo sapiens) (UniProt P78368); conditions: Compound concentration 1000.0 nM
[8] = biological target: Megakaryocyte-associated tyrosine-protein kinase (Homo sapiens) (UniProt P42679); conditions: Compound concentration 1000.0 nM
Megakaryocyte-associated tyrosine-protein kinase (Homo sapiens), sequence (P42679 whole entry): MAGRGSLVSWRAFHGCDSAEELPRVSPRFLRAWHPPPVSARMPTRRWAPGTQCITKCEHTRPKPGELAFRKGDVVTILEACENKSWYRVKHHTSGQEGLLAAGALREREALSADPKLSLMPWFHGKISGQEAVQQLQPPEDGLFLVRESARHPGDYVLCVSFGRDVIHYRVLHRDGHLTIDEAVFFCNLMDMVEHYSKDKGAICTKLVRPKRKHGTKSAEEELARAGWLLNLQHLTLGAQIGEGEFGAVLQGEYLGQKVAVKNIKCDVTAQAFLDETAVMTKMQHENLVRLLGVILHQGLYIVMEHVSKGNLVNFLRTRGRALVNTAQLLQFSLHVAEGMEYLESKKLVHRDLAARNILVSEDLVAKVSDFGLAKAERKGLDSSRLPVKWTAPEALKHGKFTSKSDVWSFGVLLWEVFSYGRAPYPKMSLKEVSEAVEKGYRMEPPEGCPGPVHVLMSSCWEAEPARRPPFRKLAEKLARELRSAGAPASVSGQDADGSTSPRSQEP

[9] = biological target: Serine/threonine-protein kinase DCLK2 (Homo sapiens) (UniProt Q8N568); conditions: Compound concentration 1000.0 nM
[10] = biological target: Dual specificity tyrosine-phosphorylation-regulated kinase 1A (Homo sapiens) (UniProt Q13627); conditions: Compound concentration 1000.0 nM
[11] = system: Epidermal growth factor receptor (Homo sapiens), P00533 [UNDEFINED MUTATION]; conditions: Compound concentration 1000.0 nM
Epidermal growth factor receptor (Homo sapiens), P00533 [UNDEFINED MUTATION], sequence (P00533 whole entry, looked up, change not shown): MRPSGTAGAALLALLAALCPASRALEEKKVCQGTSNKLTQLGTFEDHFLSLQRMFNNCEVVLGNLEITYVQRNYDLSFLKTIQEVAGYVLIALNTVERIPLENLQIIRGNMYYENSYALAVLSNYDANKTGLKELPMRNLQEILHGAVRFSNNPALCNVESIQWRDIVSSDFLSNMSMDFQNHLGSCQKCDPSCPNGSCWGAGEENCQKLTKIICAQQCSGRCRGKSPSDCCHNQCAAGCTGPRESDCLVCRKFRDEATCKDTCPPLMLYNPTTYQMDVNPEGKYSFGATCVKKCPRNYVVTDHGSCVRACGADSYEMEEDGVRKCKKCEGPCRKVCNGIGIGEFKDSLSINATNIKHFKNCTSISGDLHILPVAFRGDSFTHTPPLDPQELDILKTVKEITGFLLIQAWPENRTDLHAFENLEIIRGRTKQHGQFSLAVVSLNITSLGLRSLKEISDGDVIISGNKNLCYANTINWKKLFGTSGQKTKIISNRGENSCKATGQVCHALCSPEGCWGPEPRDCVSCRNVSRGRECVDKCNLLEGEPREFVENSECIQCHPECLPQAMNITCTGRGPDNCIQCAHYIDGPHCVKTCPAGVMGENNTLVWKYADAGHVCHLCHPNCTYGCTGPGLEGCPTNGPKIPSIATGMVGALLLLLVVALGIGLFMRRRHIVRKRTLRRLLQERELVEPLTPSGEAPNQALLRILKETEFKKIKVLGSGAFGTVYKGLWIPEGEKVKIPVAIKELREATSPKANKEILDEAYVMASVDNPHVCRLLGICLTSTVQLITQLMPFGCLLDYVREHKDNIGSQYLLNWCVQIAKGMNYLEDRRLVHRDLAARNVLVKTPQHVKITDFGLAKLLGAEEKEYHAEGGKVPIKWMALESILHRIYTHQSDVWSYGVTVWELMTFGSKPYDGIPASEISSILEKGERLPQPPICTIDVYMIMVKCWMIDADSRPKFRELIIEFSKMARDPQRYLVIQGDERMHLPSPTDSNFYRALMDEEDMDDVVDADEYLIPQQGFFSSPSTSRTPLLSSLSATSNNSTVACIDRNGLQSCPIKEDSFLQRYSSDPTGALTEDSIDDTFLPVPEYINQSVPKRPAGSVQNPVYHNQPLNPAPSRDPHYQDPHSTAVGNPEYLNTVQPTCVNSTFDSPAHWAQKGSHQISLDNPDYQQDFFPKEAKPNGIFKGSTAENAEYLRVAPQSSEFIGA

[12] = system: Epidermal growth factor receptor (Homo sapiens), P00533 [UNDEFINED MUTATION]; conditions: Compound concentration 1000.0 nM; remark: listed apart in the source
[13] = biological target: Ephrin type-A receptor 4 (Homo sapiens) (UniProt P54764); conditions: Compound concentration 1000.0 nM
[14] = biological target: Receptor tyrosine-protein kinase erbB-2 (Homo sapiens) (UniProt P04626); conditions: Compound concentration 1000.0 nM
[15] = biological target: Tyrosine-protein kinase Fes/Fps (Homo sapiens) (UniProt P07332); conditions: Compound concentration 1000.0 nM
[16] = biological target: Vascular endothelial growth factor receptor 1 (Homo sapiens) (UniProt P17948); conditions: Compound concentration 1000.0 nM
[17] = system: Receptor-type tyrosine-protein kinase FLT3 (Homo sapiens), P36888 [R834Q]; conditions: Compound concentration 1000.0 nM
[18] = biological target: Receptor-type tyrosine-protein kinase FLT3 (Homo sapiens) (UniProt P36888); conditions: Compound concentration 1000.0 nM
[19] = biological target: G protein-coupled receptor kinase 3 (Homo sapiens) (UniProt P35626); conditions: Compound concentration 1000.0 nM
[20] = biological target: Hormonally up-regulated neu tumor-associated kinase (Homo sapiens) (UniProt P57058); conditions: Compound concentration 1000.0 nM
[21] = biological target: Tyrosine-protein kinase JAK2 (Homo sapiens) (UniProt O60674); conditions: Compound concentration 1000.0 nM
Tyrosine-protein kinase JAK2 (Homo sapiens), sequence (O60674 whole entry): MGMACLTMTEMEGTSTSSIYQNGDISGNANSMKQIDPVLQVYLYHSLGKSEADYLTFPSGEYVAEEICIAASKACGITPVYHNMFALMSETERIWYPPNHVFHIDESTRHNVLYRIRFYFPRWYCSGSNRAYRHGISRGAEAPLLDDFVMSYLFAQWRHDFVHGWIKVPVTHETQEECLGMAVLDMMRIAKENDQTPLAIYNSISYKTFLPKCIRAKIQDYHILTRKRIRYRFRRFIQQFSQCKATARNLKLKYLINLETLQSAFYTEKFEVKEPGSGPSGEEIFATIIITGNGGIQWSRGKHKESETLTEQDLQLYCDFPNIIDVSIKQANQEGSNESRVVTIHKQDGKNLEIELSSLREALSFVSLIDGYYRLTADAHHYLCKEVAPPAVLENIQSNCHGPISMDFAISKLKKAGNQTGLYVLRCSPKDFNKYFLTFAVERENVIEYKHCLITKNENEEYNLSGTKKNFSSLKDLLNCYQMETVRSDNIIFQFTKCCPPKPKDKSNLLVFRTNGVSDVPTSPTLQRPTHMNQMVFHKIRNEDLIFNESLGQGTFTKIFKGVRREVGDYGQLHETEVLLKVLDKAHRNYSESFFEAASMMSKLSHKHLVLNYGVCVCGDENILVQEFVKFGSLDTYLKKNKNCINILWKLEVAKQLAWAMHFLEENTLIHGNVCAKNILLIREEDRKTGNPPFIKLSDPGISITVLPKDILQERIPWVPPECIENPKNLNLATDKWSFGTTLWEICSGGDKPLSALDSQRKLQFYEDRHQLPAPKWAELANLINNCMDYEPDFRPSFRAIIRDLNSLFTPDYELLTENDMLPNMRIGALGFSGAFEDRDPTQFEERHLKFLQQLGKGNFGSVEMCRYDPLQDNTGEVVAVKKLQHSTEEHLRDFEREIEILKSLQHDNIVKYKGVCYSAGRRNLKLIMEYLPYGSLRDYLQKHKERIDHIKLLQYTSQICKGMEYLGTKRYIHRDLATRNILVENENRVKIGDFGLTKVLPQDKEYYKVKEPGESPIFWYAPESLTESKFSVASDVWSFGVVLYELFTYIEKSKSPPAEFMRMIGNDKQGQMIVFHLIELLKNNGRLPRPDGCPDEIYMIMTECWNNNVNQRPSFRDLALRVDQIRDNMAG

[22] = system: Mast/stem cell growth factor receptor Kit (Homo sapiens), P10721 [A829P]; conditions: Compound concentration 1000.0 nM
[23] = system: Mast/stem cell growth factor receptor Kit (Homo sapiens), P10721 [L576P]; conditions: Compound concentration 1000.0 nM
[24] = biological target: Serine/threonine-protein kinase LATS1 (Homo sapiens) (UniProt O95835); conditions: Compound concentration 1000.0 nM
[25] = biological target: Mitogen-activated protein kinase kinase kinase 15 (Homo sapiens) (UniProt Q6ZN16); conditions: Compound concentration 1000.0 nM
[26] = biological target: Mitogen-activated protein kinase kinase kinase 3 (Homo sapiens) (UniProt Q99759); conditions: Compound concentration 1000.0 nM
[27] = biological target: Mitogen-activated protein kinase kinase kinase kinase 2 (Homo sapiens) (UniProt Q12851); conditions: Compound concentration 1000.0 nM
[28] = biological target: Serine/threonine-protein kinase 24 (Homo sapiens) (UniProt Q9Y6E0); conditions: Compound concentration 1000.0 nM
[29] = biological target: Myosin light chain kinase 2, skeletal/cardiac muscle (Homo sapiens) (UniProt Q9H1R3); conditions: Compound concentration 1000.0 nM
[30] = biological target: Mitogen-activated protein kinase 11 (Homo sapiens) (UniProt Q15759); conditions: Compound concentration 1000.0 nM
[31] = biological target: Serine/threonine-protein kinase PAK 1 (Homo sapiens) (UniProt Q13153); conditions: Compound concentration 1000.0 nM
[32] = biological target: Serine/threonine-protein kinase PAK 6 (Homo sapiens) (UniProt Q9NQU5); conditions: Compound concentration 1000.0 nM
[33] = biological target: Phosphatidylinositol 4,5-bisphosphate 3-kinase catalytic subunit alpha isoform (Homo sapiens) (UniProt P42336); conditions: Compound concentration 1000.0 nM
Phosphatidylinositol 4,5-bisphosphate 3-kinase catalytic subunit alpha isoform (Homo sapiens), sequence (P42336 whole entry, canonical isoform): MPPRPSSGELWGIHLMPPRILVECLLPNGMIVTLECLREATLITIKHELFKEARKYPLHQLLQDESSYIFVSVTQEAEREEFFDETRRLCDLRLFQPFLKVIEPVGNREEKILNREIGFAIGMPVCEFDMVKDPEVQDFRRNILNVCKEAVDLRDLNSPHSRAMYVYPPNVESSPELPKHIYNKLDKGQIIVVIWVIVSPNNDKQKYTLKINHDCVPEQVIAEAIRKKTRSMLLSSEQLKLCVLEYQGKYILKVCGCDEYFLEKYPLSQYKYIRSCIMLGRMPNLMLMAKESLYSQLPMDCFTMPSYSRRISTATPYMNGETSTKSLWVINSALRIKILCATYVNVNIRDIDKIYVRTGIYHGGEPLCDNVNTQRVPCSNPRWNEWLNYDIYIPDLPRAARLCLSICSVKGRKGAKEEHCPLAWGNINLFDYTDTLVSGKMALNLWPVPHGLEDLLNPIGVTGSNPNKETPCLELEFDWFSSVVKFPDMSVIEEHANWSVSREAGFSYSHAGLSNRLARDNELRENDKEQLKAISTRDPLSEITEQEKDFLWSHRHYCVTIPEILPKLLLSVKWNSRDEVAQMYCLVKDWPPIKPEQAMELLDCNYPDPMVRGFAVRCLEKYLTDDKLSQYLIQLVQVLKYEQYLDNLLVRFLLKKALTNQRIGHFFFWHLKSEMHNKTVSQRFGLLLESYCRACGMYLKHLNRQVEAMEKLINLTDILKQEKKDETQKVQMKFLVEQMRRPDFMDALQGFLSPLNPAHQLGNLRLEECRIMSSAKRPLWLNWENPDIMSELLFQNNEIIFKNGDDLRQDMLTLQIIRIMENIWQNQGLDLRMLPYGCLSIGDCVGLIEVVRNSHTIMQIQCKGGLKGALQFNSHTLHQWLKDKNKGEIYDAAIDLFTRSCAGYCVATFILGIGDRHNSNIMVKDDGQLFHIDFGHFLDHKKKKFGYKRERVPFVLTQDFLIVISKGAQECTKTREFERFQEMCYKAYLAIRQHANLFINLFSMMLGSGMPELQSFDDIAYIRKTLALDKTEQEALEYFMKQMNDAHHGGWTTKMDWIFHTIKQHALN

[34] = system: Phosphatidylinositol 4,5-bisphosphate 3-kinase catalytic subunit alpha isoform (Homo sapiens), P42336 [E542K]; conditions: Compound concentration 1000.0 nM
Phosphatidylinositol 4,5-bisphosphate 3-kinase catalytic subunit alpha isoform (Homo sapiens), P42336 [E542K], sequence (P42336 whole entry E542K, canonical isoform): as the sequence (P42336 whole entry, canonical isoform) above, with E542K counted along it

[35] = biological target: cAMP-dependent protein kinase catalytic subunit alpha (Homo sapiens) (UniProt P17612); conditions: Compound concentration 1000.0 nM
[36] = biological target: Serine/threonine-protein kinase PLK4 (Homo sapiens) (UniProt O00444); conditions: Compound concentration 1000.0 nM
[37] = biological target: Ribosomal protein S6 kinase alpha-1 (Homo sapiens) (UniProt Q15418); conditions: Compound concentration 1000.0 nM
[38] = biological target: Serine/threonine-protein kinase tousled-like 2 (Homo sapiens) (UniProt Q86UE8); conditions: Compound concentration 1000.0 nM
[39] = biological target: TRAF2 and NCK-interacting protein kinase (Homo sapiens) (UniProt Q9UKE5); conditions: Compound concentration 1000.0 nM
[40] = biological target: Testis-specific serine/threonine-protein kinase 1 (Homo sapiens) (UniProt Q9BXA7); conditions: Compound concentration 1000.0 nM
[41] = biological target: Sodium-dependent noradrenaline transporter (Homo sapiens) (UniProt P23975); conditions: Compound concentration 10.0 uM
[42] = biological target: Histamine H4 receptor (Homo sapiens) (UniProt Q9H3N8); conditions: Compound concentration 10.0 uM
[43] = biological target: Alpha-2B adrenergic receptor (Homo sapiens) (UniProt P18089); conditions: Compound concentration 10.0 uM
[44] = biological target: Muscarinic acetylcholine receptor M4 (Homo sapiens) (UniProt P08173); conditions: Compound concentration 10.0 uM
Muscarinic acetylcholine receptor M4 (Homo sapiens), sequence (P08173 whole entry): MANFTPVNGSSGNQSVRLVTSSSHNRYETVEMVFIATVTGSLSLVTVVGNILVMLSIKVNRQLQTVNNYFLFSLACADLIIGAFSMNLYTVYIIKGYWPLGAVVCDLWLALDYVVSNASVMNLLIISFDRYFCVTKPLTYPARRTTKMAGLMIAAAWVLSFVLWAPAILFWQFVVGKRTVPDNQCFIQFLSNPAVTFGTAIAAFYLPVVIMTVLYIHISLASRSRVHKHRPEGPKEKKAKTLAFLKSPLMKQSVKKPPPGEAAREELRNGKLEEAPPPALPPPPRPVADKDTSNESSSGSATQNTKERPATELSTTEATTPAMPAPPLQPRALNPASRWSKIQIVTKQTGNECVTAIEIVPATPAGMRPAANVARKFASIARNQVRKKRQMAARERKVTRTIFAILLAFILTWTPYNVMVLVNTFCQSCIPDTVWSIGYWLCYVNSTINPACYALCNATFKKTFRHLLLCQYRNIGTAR

CCOCCn1cc(C(=O)Nc2ccc(-n3nc(-c4cccnc4)cc3C(F)(F)F)cn2)ccc1=O [BI 1935]
inactive: residual activity [1] 94% | residual activity [2] 111% | residual activity [3] 99% | residual activity [4] 94% | residual activity [5] 100% | residual activity [6] 85% | residual activity [7] 100% | residual activity [8] 90% | residual activity [9] 89% | residual activity [10] 77% | residual activity [11] 98% | residual activity [12] 100% | residual activity [13] 91% | residual activity [14] 100% | residual activity [15] 82% | residual activity [16] 100% | residual activity [17] 100% | residual activity [18] 87% | residual activity [19] 76% | residual activity [20] 93% | residual activity [21] 91% | residual activity [22] 100% | residual activity [23] 94% | residual activity [24] 69% | residual activity [25] 100% | residual activity [26] 100% | residual activity [27] 76% | residual activity [28] 100% | residual activity [29] 89% | residual activity [30] 80% | residual activity [31] 96% | residual activity [32] 100% | residual activity [33] 92% | residual activity [34] 100% | residual activity [35] 92% | residual activity [36] 100% | residual activity [37] 100% | residual activity [38] 100% | residual activity [39] 100% | residual activity [40] 100% | inhibition [41] -7.51% | inhibition [42] 48.6% | inhibition [43] 4.9% | inhibition [44] 4.25%
